Results as given in PubChem BioAssay (NCI).
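At the GI50, growth is halved. The concentration for full growth arrest is given as TGI.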

What was measured:
Assay in all cases: growth of human tumour cells (NCI), 384-well format; in the data active = GI50 below about 0.43 µM; inactive = the rest
KM12 colon = tested on: KM12 colon
MOLT-4 leukemia = tested on: MOLT-4 leukemia
RXF 393 renal = tested on: RXF 393 renal
T-47D breast = tested on: T-47D breast
SN12C renal = tested on: SN12C renal
BT-549 breast = tested on: BT-549 breast
SK-MEL-5 melanoma = tested on: SK-MEL-5 melanoma
HT29 colon = tested on: HT29 colon
HOP-92 NSCLC = tested on: HOP-92 NSCLC
SK-MEL-2 melanoma = tested on: SK-MEL-2 melanoma
DU-145 prostate = tested on: DU-145 prostate
SF-268 CNS = tested on: SF-268 CNS
OVCAR-5 ovarian = tested on: OVCAR-5 ovarian
IGROV1 ovarian = tested on: IGROV1 ovarian
LOX IMVI melanoma = tested on: LOX IMVI melanoma
OVCAR-8 ovarian = tested on: OVCAR-8 ovarian
NCI-H460 NSCLC = tested on: NCI-H460 NSCLC
NCI/ADR-RES ovarian = tested on: NCI/ADR-RES ovarian
EKVX NSCLC = tested on: EKVX NSCLC
NCI-H322M lung = tested on: NCI-H322M lung
SW-620 colon = tested on: SW-620 colon
COLO 205 colon = tested on: COLO 205 colon
TK-10 renal = tested on: TK-10 renal
UO-31 renal = tested on: UO-31 renal
HCC-2998 colon = tested on: HCC-2998 colon
ACHN renal = tested on: ACHN renal
MDA-MB-435 melanoma = tested on: MDA-MB-435 melanoma
SR leukemia = tested on: SR leukemia
A498 renal = tested on: A498 renal
MCF7 breast = tested on: MCF7 breast
MDA-MB-231 breast = tested on: MDA-MB-231 breast
A549 NSCLC = tested on: A549 NSCLC
SF-539 CNS = tested on: SF-539 CNS
NCI-H522 lung = tested on: NCI-H522 lung
RPMI-8226 leukemia = tested on: RPMI-8226 leukemia
HOP-62 NSCLC = tested on: HOP-62 NSCLC
PC-3 prostate = tested on: PC-3 prostate
NCI-H23 lung = tested on: NCI-H23 lung
SNB-75 CNS = tested on: SNB-75 CNS
CCRF-CEM leukemia = tested on: CCRF-CEM leukemia
OVCAR-4 ovarian = tested on: OVCAR-4 ovarian
SNB-19 CNS = tested on: SNB-19 CNS
UACC-62 melanoma = tested on: UACC-62 melanoma
SK-MEL-28 melanoma = tested on: SK-MEL-28 melanoma
K-562 leukemia = tested on: K-562 leukemia
786-0 renal = tested on: 786-0 renal
SF-295 CNS = tested on: SF-295 CNS

Nc1nc2cc(-c3ccc4ncc(C(=O)N5CCOCC5)n4c3)ccc2o1
> 91.4 µM: TGI (SW-620 colon)
> 100 µM: TGI (KM12 colon) | TGI (RXF 393 renal) | TGI (SN12C renal) | TGI (BT-549 breast) | TGI (HT29 colon) | TGI (SK-MEL-2 melanoma) | TGI (DU-145 prostate) | TGI (SF-268 CNS) | TGI (OVCAR-5 ovarian) | TGI (LOX IMVI melanoma) | TGI (OVCAR-8 ovarian) | TGI (NCI-H460 NSCLC) | TGI (NCI/ADR-RES ovarian) | TGI (EKVX NSCLC) | TGI (NCI-H322M lung) | TGI (COLO 205 colon) | TGI (UO-31 renal) | TGI (HCC-2998 colon) | TGI (ACHN renal) | TGI (MDA-MB-435 melanoma) | TGI (SR leukemia) | TGI (A498 renal) | TGI (MCF7 breast) | TGI (MDA-MB-231 breast) | TGI (A549 NSCLC) | TGI (SF-539 CNS) | TGI (HOP-62 NSCLC) | TGI (PC-3 prostate) | TGI (NCI-H23 lung) | TGI (CCRF-CEM leukemia) | TGI (OVCAR-4 ovarian) | TGI (SNB-19 CNS) | TGI (UACC-62 melanoma) | TGI (SK-MEL-28 melanoma) | TGI (K-562 leukemia) | TGI (786-0 renal)
3.14 µM: TGI (T-47D breast)
5.23 µM: TGI (IGROV1 ovarian)
inactive: GI50 (KM12 colon) 28.7 µM | GI50 (MOLT-4 leukemia) 3.45 µM | GI50 (RXF 393 renal) 40.2 µM | GI50 (T-47D breast) 0.574 µM | GI50 (SN12C renal) 7.67 µM | GI50 (BT-549 breast) 23.7 µM | GI50 (SK-MEL-5 melanoma) 5.97 µM | GI50 (HT29 colon) 8.1 µM | GI50 (HOP-92 NSCLC) 2.2 µM | GI50 (SK-MEL-2 melanoma) 30 µM | GI50 (DU-145 prostate) 21.3 µM | GI50 (SF-268 CNS) 35.1 µM | GI50 (OVCAR-5 ovarian) 7.68 µM | GI50 (IGROV1 ovarian) 1.85 µM | GI50 (LOX IMVI melanoma) 19.5 µM | GI50 (OVCAR-8 ovarian) > 78.2 µM | GI50 (NCI-H460 NSCLC) 2.77 µM | GI50 (NCI/ADR-RES ovarian) > 100 µM | GI50 (EKVX NSCLC) 5.01 µM | GI50 (NCI-H322M lung) 6.17 µM | GI50 (SW-620 colon) 17.7 µM | GI50 (COLO 205 colon) 10.2 µM | GI50 (TK-10 renal) 5.17 µM | GI50 (UO-31 renal) 8.62 µM | GI50 (HCC-2998 colon) 12.4 µM | GI50 (ACHN renal) 8.58 µM | GI50 (MDA-MB-435 melanoma) 24.2 µM | GI50 (SR leukemia) 12.2 µM | GI50 (A498 renal) 5.93 µM | GI50 (MCF7 breast) 1.45 µM | GI50 (MDA-MB-231 breast) 9.02 µM | GI50 (A549 NSCLC) 9.11 µM | GI50 (SF-539 CNS) > 60.9 µM | GI50 (NCI-H522 lung) 4.05 µM | GI50 (RPMI-8226 leukemia) 1.58 µM | GI50 (HOP-62 NSCLC) > 26.4 µM | GI50 (PC-3 prostate) 5.45 µM | GI50 (NCI-H23 lung) 5.59 µM | GI50 (SNB-75 CNS) 10.2 µM | GI50 (CCRF-CEM leukemia) 7.44 µM | GI50 (OVCAR-4 ovarian) > 40.7 µM | GI50 (SNB-19 CNS) > 73.8 µM | GI50 (UACC-62 melanoma) 66.4 µM | GI50 (SK-MEL-28 melanoma) > 57.6 µM | GI50 (K-562 leukemia) > 86 µM | GI50 ([…]-0 renal) > 75.6 µM
> 74.5 µM: TGI (NCI-H522 lung)
18.5 µM: TGI (HOP-92 NSCLC)
> 59.6 µM: TGI (SK-MEL-5 melanoma)
53.7 µM: TGI (TK-10 renal)
4.55 µM: TGI (RPMI-8226 leukemia)
> 95.1 µM: TGI (SF-295 CNS)
> 75 µM: TGI (SNB-75 CNS)
19.9 µM: TGI (MOLT-4 leukemia)
